Experimental data reported in patent US20220160009A1, “COMPOSITION COMPRISING TRANSFRUCTOSYLATED STEVIOL GLYCOSIDE” (CJ CHEILJEDANG CORPORATION, priority 2019, published 2022).

What was measured:
[1] = Sensory descriptive analysis by experts (n=15); settings: diluted to equivalent sweetness based on 10 brix of sugar
Protocol: The transfructosylated Stevioside (STV-Fru) and the transfructosylated Rebaudioside A (RA-Fru) prepared in Preparation Example 1 were diluted to the sweetness equivalent to Stevioside (STV) and Rebaudioside A (RA) (sweetness based on 10 brix of sugar), respectively, and then presented to experts (n=15) for descriptive analysis.

[2] = Sensory preference evaluation by 15 panels; settings: diluted to sweetness equivalent to 10% (w/w) or 10 brix of sugar, 9-point scale converted to 5-point scale
Protocol: Prior to sensory evaluation, four samples of Example 1 (STV, STV-Fru, RA, RA-Fru) were diluted to the sweetness equivalent to 10% (w/w) or 10 brix of sugar, and the sensory evaluation was carried out on the four samples.
The evaluation was proceeded as follow: 15 panels were given the four samples and required to evaluate the sweetness preference and the overall preference of the four samples on a 9-point scale (1=very much dislike, 5=neither dislike nor like, 9=very much like).
Then, the statistical analysis was converted to a 5-point scale to verify the significant difference through paired T tests (reliability level of 95%).

[3] = listed as transfructosylated Rebaudioside A
[4] = listed as transfructosylated Stevioside

| SMILES | Bitterness Intensity [1] | Feeling of Weight [1] | Off-smell/Off flavor Intensity [1] | Overall Preference [1] | Sweetness Intensity [1] | Sweetness Persistence [1] | Sweetness Preference [1] | Overall Preference [2] | Sweetness Preference [2] | also measured |
| --- | --- | --- | --- | --- | --- | --- | --- | --- | --- | --- |
| C=C1C[C@@]23CC[C@H]4[C@@](C)(CCC[C@@]4(C)C(=O)O[C@@H]4O[C@H](CO)[C@@H](O)[C@H](O)[C@H]4O)[C@@H]2CC[C@]1(O[C@@H]1O[C@H](CO)[C@@H](O)[C@H](O[C@@H]2O[C@H](CO)[C@@H](O)[C@H](O)[C@H]2O)[C@H]1O[C@@H]1O[C@H](CO)[C@@H](O)[C@H](O)[C@H]1O)C3 [RA, Rebaudioside A, reference compound] | 3.4 | 2.9 | 3.3 | 2.6 | 3.2 | 2.9 | 2.5 | 2.72 | 2.51 | – |
| C=C1C[C@@]23CC[C@H]4[C@@](C)(CCC[C@@]4(C)C(=O)O[C@@H]4O[C@H](CO[C@]5(CO)O[C@H](CO)[C@@H](O)[C@@H]5O)[C@@H](O)[C@H](O)[C@H]4O)[C@@H]2CC[C@]1(O[C@@H]1O[C@H](CO)[C@@H](O)[C@H](O[C@@H]2O[C@H](CO)[C@@H](O)[C@H](O)[C@H]2O)[C@H]1O[C@@H]1O[C@H](CO)[C@@H](O)[C@H](O)[C@H]1O)C3 [RA-Fru, 13-[(2-β-D-glucopyranosyl-3-O-β-D-glucopyranosyl-β-D-glucopyranosyl)oxy]ent-kaur-16-en-19-oic acid 6-O-β-D-fructofuranose-β-D-glucopyranosyl ester] | 1.8 | 2.7 | 2.4 | 3.5 | 3.1 | 2.6 | 3.4 | 3.73 | 3.42 | Bitterness Intensity [1, 3]: significantly low; Off-smell/Off flavor Intensity [1, 3]: significantly low; Overall Preference [1, 3]: significantly high; Sweetness Preference [1, 3]: significantly high; Overall Preference [2, 3]: excellent; Sweetness Preference [2, 3]: excellent |
| C=C1C[C@@]23CC[C@H]4[C@@](C)(CCC[C@@]4(C)C(=O)O[C@@H]4O[C@H](CO)[C@@H](O)[C@H](O)[C@H]4O)[C@@H]2CC[C@]1(O[C@@H]1O[C@H](CO)[C@@H](O)[C@H](O)[C@H]1O[C@@H]1O[C@H](CO)[C@@H](O)[C@H](O)[C@H]1O)C3 [STV, Stevioside, reference compound] | 3.9 | 2.8 | 3.5 | 2.1 | 2.8 | 2.9 | 2.3 | 2.02 | 2.13 | – |
| C=C1C[C@@]23CC[C@H]4[C@@](C)(CCC[C@@]4(C)C(=O)O[C@@H]4O[C@H](CO[C@]5(CO)O[C@H](CO)[C@@H](O)[C@@H]5O)[C@@H](O)[C@H](O)[C@H]4O)[C@@H]2CC[C@]1(O[C@@H]1O[C@H](CO)[C@@H](O)[C@H](O)[C@H]1O[C@@H]1O[C@H](CO)[C@@H](O)[C@H](O)[C@H]1O)C3 [STV-Fru] | 2.3 | 3.2 | 2.3 | 3.5 | 2.6 | 2.7 | 3.3 | 3.02 | 3.14 | Bitterness Intensity [1, 4]: significantly low; Off-smell/Off flavor Intensity [1, 4]: significantly low; Overall Preference [1, 4]: significantly high; Sweetness Preference [1, 4]: significantly high; Overall Preference [2, 4]: excellent; Sweetness Preference [2, 4]: excellent |
